Data published in patent publication USRE28744E, “Crystalline p-hydroxyampicillin and salts thereof” (priority 1968, dated 1976).
Converted amounts (≈) assume the structure as drawn.

Tests used:
[1] = comparison within series; cited from earlier work
[2] = test system: Gram-negative bacteria; conditions: 100 μg./ml.
Description: (§1) Results were obtained by serial dilution in nutrient agar. The inoculum was one drop of an overnight broth culture, and M.I.C. values were read after 18 hours at 37°C.

[3] = test system: E.Coli; assay: in vitro antibacterial screening, M.I.C., E.Coli; format: cell-based; conditions: for MIC: Escherichia coli
Excerpt: (§2) The four resulting hydroxypenicillins were then submitted to in vitro antibacterial screening in comparison with the two epimers of α-aminobenzylpenicillin.

[4] = test system: Proteus mirabilis; assay: in vitro antibacterial screening, M.I.C., Proteus mirabilis; format: cell-based
Excerpt: as §2

[5] = test system: Shigella flexneri; assay: in vitro antibacterial screening, M.I.C., Shigella flexneri; format: cell-based; conditions: for MIC: Shigella flexneri
Excerpt: as §2

[6] = test system: Salm. typhi; assay: in vitro antibacterial screening, M.I.C., Salm. typhi; format: cell-based; conditions: for MIC: Salmonella enterica, TYPHI, read-out: M.I.C. Salm. typhi, in vitro; for M.I.C. Salm. typhi: in vitro
Excerpt: as §2

[7] = clinical; conditions: human, urine, po, 500 mg
Description: (§3) The two penicillins were then compared with ampicillin in absorption studies in human volunteers. Groups of fasting volunteers were each given 500 mg. of the appropriate penicillin by mouth in capsules, and blood samples were withdrawn at regular intervals and assayed biologically to determine the serum concentration of the penicillins. The urine was also collected over a 6 hour period and similarly assayed to determine the proportion of the dose excreted via the kidneys.

[8] = test system: Kleb. pneum; assay: in vitro antibacterial screening, M.I.C., Kleb. pneum; format: cell-based
Excerpt: as §2

[9] = test system: Staph. Oxford; assay: inhibition of Staph. Oxford; format: cell-based; conditions: product contaminated with approximately 5% of 6-aminopenicillanic acid; read-out: concentration inhibiting Staph. Oxford
[10] = test system: E. coli 2; assay: inhibition of E. coli 2; format: cell-based; conditions: Escherichia coli, product contaminated with approximately 5% of 6-aminopenicillanic acid, read-out: concentration inhibiting E. coli 2
[11] = test system: E. coli 37; assay: serial dilution in nutrient agar, synergy M.I.C., E. coli 37; format: cell-based; conditions: in the presence of 100 μg./ml. Nafcillin
Description: as §1

[12] = test system: Klebsiella C 978; assay: serial dilution in nutrient agar, synergy M.I.C., Klebsiella C 978; format: cell-based
Description: as §1

[13] = test system: Paracolon 232; assay: serial dilution in nutrient agar, synergy M.I.C., Paracolon 232; format: cell-based; conditions: in the presence of 100 μg./ml. Methicillin
Description: as §1

[14] = absorption studies in human volunteers (oral); conditions: serum, 500 mg
Description: as §3

[15] = test system: Proteus morganii G; assay: serial dilution in nutrient agar, synergy M.I.C., Proteus morganii G; format: cell-based
Description: as §1

[16] = test system: Proteus vulgaris K; assay: serial dilution in nutrient agar, synergy M.I.C., Proteus vulgaris K; format: cell-based
Description: as §1

[17] = in the presence of 100 μg./ml. Dicloxacillin
[18] = in the presence of 100 μg./ml. Flucloxacillin
[19] = in the presence of 100 μg./ml. Methicillin

For `Cc1onc(-c2c(Cl)cccc2Cl)c1C(=O)N[C@@H]1C(=O)N2[C@@H]1SC(C)(C)[C@@H]2C(=O)O` [dicloxacillin], the “oral absorption of known penicillins (in words)” value [1] is listed as “better absorbed than cloxacillin” and the “inhibition of the Gram-negative bacteria by the penicillinase-resistant penicillin by itself” value (“inhibition of the Gram-negative bacteria” for short) [2] is listed as “None of these penicillinase-resistant penicillins by itself inhibits the Gram-negative bacteria at 100 μg./ml”.

In the case of `Cc1onc(-c2ccccc2Cl)c1C(=O)N[C@@H]1C(=O)N2[C@@H]1SC(C)(C)[C@@H]2C(=O)O` [cloxacillin], the “inhibition of the Gram-negative bacteria” value [2] is reported as “None of these penicillinase-resistant penicillins by itself inhibits the Gram-negative bacteria at 100 μg./ml”.

In the case of `CCOc1ccc2ccccc2c1C(=O)N[C@@H]1C(=O)N2[C@@H]1SC(C)(C)[C@@H]2C(=O)O` [nafcillin], the “inhibition of the Gram-negative bacteria” value [2] is reported as “None of these penicillinase-resistant penicillins by itself inhibits the Gram-negative bacteria at 100 μg./ml”.

`CC1(C)S[C@@H]2[C@H](NC(=O)[C@H](N)c3ccccc3)C(=O)N2[C@H]1C(=O)O` [Ampicillin, D(-)-epimer of α-aminobenzyl penicillin] gave an MIC [3] of 5 µg/mL (≈ 14.3 µM), an MIC ([4]; Proteus mirabilis) of 1.25 µg/mL (≈ 3.58 µM) and an MIC [5] of 12.5 µg/mL (≈ 35.8 µM). It also gave an MIC [6] of 0.6 µg/mL (≈ 1.72 µM), a dose excreted at 6 h [7] of 42% and an MIC [8] of 2.5 µg/mL (≈ 7.15 µM).

Molecule `CC1(C)S[C@@H]2[C@H](NC(=O)[C@H](N)c3ccc(OC(=O)OCc4ccccc4)cc3)C(=O)N2[C@H]1C(=O)O` [Example 12, 6-[(-)-α-amino-α-(p-benzyloxycarbonyloxyphenyl)-acetamido]penicillanic acid] has an MIC [9] of 0.1 µg/mL (≈ 0.2 µM) and an MIC [10] of 5 µg/mL (≈ 10 µM).

With `COc1cccc(OC)c1C(=O)N[C@@H]1C(=O)N2[C@@H]1SC(C)(C)[C@@H]2C(=O)O` [methicillin] the “inhibition of the Gram-negative bacteria” value [2] was “None of these penicillinase-resistant penicillins by itself inhibits the Gram-negative bacteria at 100 μg./ml”.

In the case of `CC1(C)S[C@@H]2C(NC(=O)C(N)c3cccc(O)c3)C(=O)N2[C@H]1C(=O)O` (stereo partly drawn) [Example 8, 6[(+)α-amino-m-hydroxyphenylacetamido]penicillanic Acid], the “M.I.C. E.Coli” value ([3]; listed as m OH +) is reported as 25 µg/mL, the “M.I.C. Proteus mirabilis” value ([4]; listed as m OH +) is reported as 25 µg/mL and the “M.I.C. Shigella flexneri” value ([5]; listed as m OH +) is reported as 25 µg/mL. The “M.I.C. Salm. typhi” value ([6]; listed as m OH +) was 12.5 µg/mL and the “M.I.C. Kleb. pneum” value ([8]; listed as m OH +) was 12.5 µg/mL.

Work on `CC1(C)S[C@@H]2[C@H](NC(=O)[C@@H](N)c3ccc(O)cc3)C(=O)N2[C@H]1C(=O)O` [Example 4, 6[(+)α-amino-p-hydroxyphenylacetamido]penicillanic Acid] yielded an MIC [3] of 25 µg/mL (≈ 68.4 µM).

For `CC1(C)S[C@@H]2[C@H](NC(=O)[C@H](N)c3ccc(O)cc3)C(=O)N2[C@H]1C(=O)O` [Example 3, 6-[(-)α-amino-p-hydroxyphenylacetamido]Penicillanic Acid], the MIC [3] was 5 µg/mL (≈ 13.7 µM), the MIC [5] was 2.5 µg/mL (≈ 6.84 µM) and the “Minimum inhibitory concentration, E. coli 37” value [11] was 2.5 µg/mL. For the same molecule, the “Minimum inhibitory concentration, Klebsiella C 978” value ([12]; None (alone), 18 hours at 37°C) was 250 µg/mL, the “Minimum inhibitory concentration, Klebsiella C 978” value ([12]; in the presence of 100 μg./ml. Cloxacillin) was 50 µg/mL and the “Minimum inhibitory concentration, Klebsiella C 978” value [12, 17] was 50 µg/mL. The “Minimum inhibitory concentration, Klebsiella C 978” value [12, 18] was 25 µg/mL, the “Minimum inhibitory concentration, Klebsiella C 978” value [12, 19] was 50 µg/mL and the “Minimum inhibitory concentration, Klebsiella C 978” value ([12]; in the presence of 100 μg./ml. Nafcillin) was 50 µg/mL. The “Minimum inhibitory concentration, Paracolon 232” value [13] was 2.5 µg/mL, the concentration at 0.5 h [14] was 2900 ng/mL and the concentration at 1 h [14] was 8250 ng/mL. For the same molecule, the concentration at 2 h [14] was 10800 ng/mL, the concentration at 4 h [14] was 3100 ng/mL and the concentration at 6 h [14] was 1130 ng/mL. The “Minimum inhibitory concentration, Proteus morganii G” value ([15]; None (alone), 18 hours at 37°C) was 250 µg/mL, the “Minimum inhibitory concentration, Proteus morganii G” value [15, 17] was 5.0 µg/mL and the “Minimum inhibitory concentration, Proteus morganii G” value [15, 18] was 5.0 µg/mL. For the same molecule, the “Minimum inhibitory concentration, Proteus vulgaris K” value ([16]; None (alone), 18 hours at 37°C) was 250 µg/mL, the “Minimum inhibitory concentration, Proteus vulgaris K” value [16, 17] was 2.5 µg/mL and the “Minimum inhibitory concentration, Proteus vulgaris K” value [16, 18] was 5.0 µg/mL. The “Minimum inhibitory concentration, Proteus vulgaris K” value [16, 19] was 50 µg/mL and the dose excreted at 6 h [7] was 74.5%.

With `CC1(C)S[C@@H]2C(NC(=O)C(N)c3cccc(O)c3)C(=O)N2[C@H]1C(=O)O` (stereo partly drawn) [Example 7, 6[(-)α-amino-m-hydroxyphenylacetamido]penicillanic Acid] the “M.I.C. E.Coli” value ([3]; listed as m OH -) was 5 µg/mL, the “M.I.C. Proteus mirabilis” value ([4]; listed as m OH -) was 2.5 µg/mL and the “M.I.C. Shigella flexneri” value ([5]; listed as m OH -) was 2.5 µg/mL. The “M.I.C. Salm. typhi” value ([6]; listed as m OH -) was 1.25 µg/mL, the concentration at 0.5 h [14] was 910 ng/mL and the concentration at 1 h [14] was 2500 ng/mL. The concentration at 2 h [14] was 2860 ng/mL, the concentration at 4 h [14] was 1150 ng/mL and the concentration at 6 h [14] was 440 ng/mL. The dose excreted at 6 h [7] was 31% and the “M.I.C. Kleb. pneum” value ([8]; listed as m OH -) was 1.25 µg/mL.

For `CC1(C)S[C@@H]2[C@H](NC(=O)[C@@H](N)c3ccccc3)C(=O)N2[C@H]1C(=O)O` [None +, reference compound], the MIC [3] was 12.5 µg/mL (≈ 35.8 µM), the MIC [6] was 2.5 µg/mL (≈ 7.15 µM) and the MIC [8] was 5 µg/mL (≈ 14.3 µM).

For `Cc1onc(-c2c(F)cccc2Cl)c1C(=O)N[C@@H]1C(=O)N2[C@@H]1SC(C)(C)[C@@H]2C(=O)O` [flucloxacillin], the “inhibition of the Gram-negative bacteria” value [2] was “None of these penicillinase-resistant penicillins by itself inhibits the Gram-negative bacteria at 100 μg./ml”.
